Source: ChEMBL document CHEMBL4813991, “Design, synthesis and bioactivity study on 5-phenylfuran derivatives as potent reversal agents against P-glycoprotein-mediated multidrug resistance in MCF-7/ADR cell” (Eur J Med Chem, 2021)
The source made the active and inactive calls. The calls are words filed in the database; no cut-off is given here.

Experiments:
[1] = Antiproliferative activity against human MCF7/ADR cells assessed as inhibition rate at 50 uM incubated for 48 hrs by CCK-8 assay; assay type: functional; details: NCI/ADR-RES
[2] = system: MCF7; assay: Antiproliferative activity against human MCF7 cells assessed as inhibition rate at 50 uM incubated for 48 hrs by CCK-8 assay; assay type: functional
[3] = system: MCF7; assay: Antiproliferative activity against human MCF7 cells assessed as inhibition rate at 10 uM incubated for 48 hrs by CCK-8 assay; assay type: functional
[4] = Antiproliferative activity against human MCF7/ADR cells assessed as inhibition rate at 10 uM incubated for 48 hrs by CCK-8 assay; assay type: functional; details: NCI/ADR-RES
[5] = system: NCI/ADR-RES; assay: Antiproliferative activity against human MCF7/ADR cells incubated for 48 hrs by CCK-8 assay; assay type: functional, cell-based
[6] = biological target: T1, ATP-dependent translocase ABCB1 (Homo sapiens, UniProt P08183); assay: Inhibition of P-glycoprotein in human MCF7/ADR cells assessed as reversal fold by measuring reduction in vincristine IC50 at 5 uM incubated for 48 hrs by CCK-8 assay; assay type: cell-based; details: nci/adr-res
[7] = biological target: T1, ATP-dependent translocase ABCB1; assay: Inhibition of P-glycoprotein in human MCF7/ADR cells assessed as reversal fold by measuring reduction in paclitaxel IC50 at 5 uM incubated for 48 hrs by CCK-8 assay; assay type: cell-based; details: nci/adr-res
[8] = biological target: T1, ATP-dependent translocase ABCB1; assay: Inhibition of P-glycoprotein in human MCF7/ADR cells assessed as reversal fold by measuring reduction in daunorubicin IC50 at 5 uM incubated for 48 hrs by CCK-8 assay; assay type: cell-based; details: nci/adr-res
[9] = system: NCI/ADR-RES; assay: Effect on P-glycoprotein expression in human MCF7/ADR cells upto 10 uM after 48 hrs by Western blot analysis; assay type: functional, cell-based; details: dose microM <=10, time 48.0 hrs
[10] = biological target: T1, ATP-dependent translocase ABCB1; assay: Inhibition of P-glycoprotein in human MCF7/ADR cells assessed as reversal fold by measuring reduction in doxorubicin IC50 at 0.5 uM incubated for 48 hrs by CCK-8 assay; assay type: cell-based; details: nci/adr-res
[11] = biological target: T1, ATP-dependent translocase ABCB1; assay: Inhibition of P-glycoprotein in human MCF7/ADR cells assessed as rhodamine-123 accumulation by measuring fluorescence intensity at 0.1 uM measured after 30 mins by flow cytometry analysis; assay type: cell-based; details: nci/adr-res, 0.5 h
[12] = biological target: T1, ATP-dependent translocase ABCB1; assay: Inhibition of P-glycoprotein in human MCF7/ADR cells assessed as rhodamine-123 accumulation by measuring fluorescence intensity at 1 uM measured after 30 mins by flow cytometry analysis; assay type: cell-based; details: nci/adr-res, 0.5 h
[13] = biological target: T1, ATP-dependent translocase ABCB1; assay: Inhibition of P-glycoprotein in human MCF7/ADR cells assessed as reversal fold by measuring reduction in doxorubicin IC50 at 0.05 uM incubated for 48 hrs by CCK-8 assay; assay type: cell-based; details: nci/adr-res
[14] = biological target: T1, ATP-dependent translocase ABCB1; assay: Inhibition of P-glycoprotein in human MCF7/ADR cells assessed as rhodamine-123 accumulation by measuring fluorescence intensity at 10 uM measured after 30 mins by flow cytometry analysis; assay type: cell-based; details: nci/adr-res, 0.5 h

T1 sequence (P08183 whole entry): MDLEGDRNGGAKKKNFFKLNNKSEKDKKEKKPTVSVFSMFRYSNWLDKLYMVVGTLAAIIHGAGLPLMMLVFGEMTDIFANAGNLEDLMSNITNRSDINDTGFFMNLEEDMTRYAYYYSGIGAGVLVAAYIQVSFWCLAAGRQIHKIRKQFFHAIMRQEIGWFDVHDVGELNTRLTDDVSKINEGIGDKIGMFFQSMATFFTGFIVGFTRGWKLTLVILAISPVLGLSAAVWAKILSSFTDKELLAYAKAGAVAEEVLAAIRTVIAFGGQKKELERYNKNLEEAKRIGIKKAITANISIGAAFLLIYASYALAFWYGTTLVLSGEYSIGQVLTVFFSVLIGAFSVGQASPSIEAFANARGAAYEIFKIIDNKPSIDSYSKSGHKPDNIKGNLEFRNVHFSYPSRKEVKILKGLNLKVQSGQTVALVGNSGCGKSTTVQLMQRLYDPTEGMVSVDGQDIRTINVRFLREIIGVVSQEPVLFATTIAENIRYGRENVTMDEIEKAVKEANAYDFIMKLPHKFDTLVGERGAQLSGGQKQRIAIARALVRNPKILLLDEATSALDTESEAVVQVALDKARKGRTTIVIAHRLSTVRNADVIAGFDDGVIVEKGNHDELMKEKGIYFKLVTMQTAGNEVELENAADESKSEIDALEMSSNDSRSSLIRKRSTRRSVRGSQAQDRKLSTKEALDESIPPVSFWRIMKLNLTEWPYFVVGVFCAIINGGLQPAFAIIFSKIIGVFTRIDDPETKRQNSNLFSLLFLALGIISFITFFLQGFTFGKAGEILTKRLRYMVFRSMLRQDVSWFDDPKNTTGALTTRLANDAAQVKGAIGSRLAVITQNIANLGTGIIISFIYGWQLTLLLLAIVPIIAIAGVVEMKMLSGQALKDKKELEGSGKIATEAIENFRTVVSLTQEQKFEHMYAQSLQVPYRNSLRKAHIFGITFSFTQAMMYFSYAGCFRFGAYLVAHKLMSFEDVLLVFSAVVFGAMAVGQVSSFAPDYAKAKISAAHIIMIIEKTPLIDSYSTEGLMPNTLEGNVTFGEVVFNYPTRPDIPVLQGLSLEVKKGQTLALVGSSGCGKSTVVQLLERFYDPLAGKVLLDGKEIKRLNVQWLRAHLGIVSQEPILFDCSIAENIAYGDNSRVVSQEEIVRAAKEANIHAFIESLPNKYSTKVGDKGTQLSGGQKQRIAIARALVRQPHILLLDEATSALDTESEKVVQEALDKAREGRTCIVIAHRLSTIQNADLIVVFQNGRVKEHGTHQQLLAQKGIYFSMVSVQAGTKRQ

SMILES	inhibition at 50 µM [1]	inhibition at 50 µM [2]	inhibition at 10 µM [3]	also measured
COc1cc2c(cc1OC)CN(C(=O)c1ccc(-c3ccc(SC(C)C)cc3)o1)CC2	39%	33.6%		
COc1cc(OC)cc(-c2ccc(C(=O)N3CCc4cc(OC)c(OC)cc4C3)o2)c1	52.9%	81.8%	19.8%	inhibition at 10 µM [4]: 21.7%
COc1cc2c(cc1OC)CN(C(=O)c1ccc(-c3ccc(OC(C)(C)C)cc3)o1)CC2	28.9%	33.8%		
COc1cc2c(cc1OC)CN(C(=O)c1ccc(-c3cccc(OC)c3OC)o1)CC2	10%	39.4%		
COc1cc2c(cc1OC)CN(C(=O)c1ccc(-c3cc(OC)c(OC)c(OC)c3)o1)CC2	51.2%	64.7%	30%	inhibition at 10 µM [4]: 19.6%
COc1cc2c(cc1OC)CN(C(=O)c1ccc(-c3ccccc3OC)o1)CC2	36.9%	66%	55.9%	
COc1ccc(CCN(C)CCCC(C#N)(c2ccc(OC)c(OC)c2)C(C)C)cc1OC (stereo unspecified)			8.3%	inhibition at 10 µM [4]: 25%
COc1ccc(-c2ccc(C(=O)N3CCc4cc(OC)c(OC)cc4C3)o2)c(OC)c1	59.8%	49.3%	15.4%	inhibition at 10 µM [4]: 28.4%
COc1ccc(OC)c(-c2ccc(C(=O)N3CCc4cc(OC)c(OC)cc4C3)o2)c1	68.2%	63.6%	11.4%	inhibition at 10 µM [4]: 23.2%
CC[C@]1(O)C[C@H]2CN(CCc3c([nH]c4ccccc34)[C@@](C(=O)OC)(c3cc4c(cc3OC)N(C=O)[C@H]3[C@@](O)(C(=O)OC)[C@H](OC(C)=O)[C@]5(CC)C=CCN6CC[C@]43[C@@H]65)C2)C1 [VINCRISTINE]				IC50 [5]: 10.1 µM; fold change (FC) [6]: 62.8
COc1cc2c(cc1OC)CN(C(=O)c1ccc(-c3ccc(Oc4ccccc4)cc3)o1)CC2	57%	45.4%	7%	inhibition at 10 µM [4]: 27.6%
COc1cccc(-c2ccc(C(=O)N3CCc4cc(OC)c(OC)cc4C3)o2)c1	1.5%	-9.9%		
CCOc1ccc(-c2ccc(C(=O)N3CCc4cc(OC)c(OC)cc4C3)o2)cc1	8.1%	20.5%		
COc1ccc(-c2ccc(C(=O)N3CCc4cc(OC)c(OC)cc4C3)o2)cc1OC	26.7%	41.8%	17.6%	
COc1cc2c(cc1OC)CN(C(=O)c1ccc(-c3ccc4c(c3)OCO4)o1)CC2	5.4%	34%		
CCCCOc1ccc(-c2ccc(C(=O)N3CCc4cc(OC)c(OC)cc4C3)o2)cc1	25.4%	21%		
C/C=C/C[C@@H](C)[C@@H](O)[C@H]1C(=O)N[C@@H](CC)C(=O)N(C)CC(=O)N(C)[C@@H](CC(C)C)C(=O)N[C@@H](C(C)C)C(=O)N(C)[C@@H](CC(C)C)C(=O)N[C@@H](C)C(=O)N[C@H](C)C(=O)N(C)[C@@H](CC(C)C)C(=O)N(C)[C@@H](CC(C)C)C(=O)N(C)[C@@H](C(C)C)C(=O)N1C [CYCLOSPORINE]			19.3%	inhibition at 10 µM [4]: 22.7%
COc1cc2c(cc1OC)CN(C(=O)c1ccc(-c3ccc(OC(F)(F)F)cc3)o1)CC2	12.7%	-4.1%		
CC(=O)O[C@H]1C(=O)[C@@]2(C)[C@H]([C@H](OC(=O)c3ccccc3)[C@]3(O)C[C@H](OC(=O)[C@H](O)[C@@H](NC(=O)c4ccccc4)c4ccccc4)C(C)=C1C3(C)C)[C@]1(OC(C)=O)CO[C@@H]1C[C@@H]2O [PACLITAXEL]				IC50 [5]: 58.7 µM; fold change (FC) [7]: 22.6
COc1ccc(-c2ccc(C(=O)N3CCc4cc(OC)c(OC)cc4C3)o2)cc1	-2.1%	20.4%		
COc1cccc2c1C(=O)c1c(O)c3c(c(O)c1C2=O)C[C@@](O)(C(C)=O)C[C@@H]3O[C@H]1C[C@H](N)[C@H](O)[C@H](C)O1 [DAUNORUBICIN]				fold change (FC) [8]: 2.8; IC50 [5]: 51.6 µM
CCCOc1ccc(-c2ccc(C(=O)N3CCc4cc(OC)c(OC)cc4C3)o2)cc1	32.3%	36.2%		
COc1cc2c(cc1OC)CN(C(=O)c1ccc(-c3ccc(OCC(C)C)cc3)o1)CC2	11.9%	19.2%		
COc1cc2c(cc1OC)CN(C(=O)c1ccc(-c3ccc(OC(C)C)cc3)o1)CC2	20%	38.1%		Activity [9]: inactive; fold change (FC) [10]: 6.7; inhibition (INH) [11]: Not Active; inhibition (INH) [12]: Active; fold change (FC) [13]: 1.9; inhibition (INH) [14]: Active
